One assay deals with T1, STING (Homo sapiens, UniProt Q86WV6).
T1 construct: endogenous in cells; host or cells: human skin fibroblasts
Kind of assay: Human FB STING antagonist assay (IFN-a/b release). It counts as cell-based. As to conditions: Human skin fibroblasts, 2h pre-treatment, 300 nM GSK STING agonist (CAS number: 2138299-34-8) for 20 h, release of IFN-a/b by HEK-Blue IFN-α/β bioassay. On the procedure: STING antagonist activity can be determined by a human fibroblast antagonist assay. For this, human skin fibroblasts are pre-treated for 2h with a serial dilution of the compound, and are then stimulated for 20 hours with 300 nM STING agonist (e.g. from GSK, CAS number: 2138299-34-8). Supernatants are then harvested and assessed for IFN-a/b release, which indicates STING activation. IFN-a/b concentration in the supernatant is determined, e.g. using an IFN-α/β bioassay. IC50 values are calculated using a non-linear regression fitting, variable slope (4 parameters).
Human skin fibroblasts were pre-treated for 2h with a serial dilution of test compound followed by stimulation with mock or 300 nM GSK STING agonist (CAS number: 2138299-34-8). Supernatants were harvested after 20 h of STING agonist stimulation. Release of IFN-a/b was determined using HEK-Blue IFN-α/β bioassay (Invivogen). Cellular viability was assessed using Alamar Blue HS assay. IC50 values were estimated using a non-linear regression fitting, variable slope (4 parameters) in GraphPad Prism 9.3.1.

The target in assay [1] is C-terminal domain (CTD) of human STING (Homo sapiens, UniProt Q86WV6). Description: STING binding FP assay II (as FP assay I, lower STING concentration). On the set-up: recombinant human STING protein (155-379). As to conditions: 7 nM STING in buffer A, 4 nM fluorescein-labelled STING ligand (Probe 1). As to the method: The interaction between molecules and the C-terminal domain (CTD) of human STING was evaluated using a competition binding assay. In this assay, recombinant human STING protein (155-379) and a STING binding fluorescent probe were employed. Upon binding of the probe to STING, the rotation of the fluorescent probe is slowed due to the larger molecular size of the protein-bound complex. As a result, emitted light retains its plane of polarization, leading to an increase in fluorescence polarization. Molecules competing for the probe binding site displace the probe, which leads to rapid randomization of the polarization plane of the emitted light and a subsequent decrease in measured fluorescence polarization signal. Change in polarization was measured, allowing a comparative evaluation of the binding affinities of different compounds to the target protein.
The assay was performed in 96-well plates (ThermoFisher, cat.# 237108) containing 100 µl : 10 µL test compound in 10% DMSO and buffer A (150 mM NaCl, 50 mM HEPES pH 7.5, 1 mM DTT) + 90 µL prepared master mix solution of: 4 nM fluorescein-labelled STING ligand (Probe 1; synthesis described above) in buffer A + 0.055% Tween-20 (v/v) and 35 nM STING in buffer A. Post mixing, plates were agitated at 600 rpm and incubated for 20 min at room temperature. Subsequent measurements of the fluorescence polarization signal were made on a BioTek Synergy-H1 plate reader, using a polarization filter; excitation: 485/20 nm, emission: 528/20 nm) with a gain-setting of 75. IC50 values were determined using a standard non-linear regression four-parameter curve fit in Graphpad Prism.
The procedure for STING binding FP assay II is the same as described for STING binding FP assay I, except for a lower STING concentration. In STING binding FP assay II, a concentration of 7 nM STING in buffer A was used.

The structures appear in SMILES notation. pIC50: −log10 of the molar value.

T1 sequence (Q86WV6 whole entry): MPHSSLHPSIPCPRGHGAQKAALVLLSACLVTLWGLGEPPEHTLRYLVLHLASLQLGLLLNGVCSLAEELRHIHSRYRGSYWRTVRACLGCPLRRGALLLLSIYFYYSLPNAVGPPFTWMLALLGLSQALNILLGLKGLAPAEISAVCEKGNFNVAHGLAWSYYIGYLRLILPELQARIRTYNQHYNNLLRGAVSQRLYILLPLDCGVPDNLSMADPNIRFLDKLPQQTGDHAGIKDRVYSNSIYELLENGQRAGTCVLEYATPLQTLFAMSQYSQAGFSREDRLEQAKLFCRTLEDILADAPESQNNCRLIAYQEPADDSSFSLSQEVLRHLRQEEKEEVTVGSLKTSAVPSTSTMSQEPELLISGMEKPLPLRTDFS
C-terminal domain (CTD) of human STING, sequence (Q86WV6 155-379): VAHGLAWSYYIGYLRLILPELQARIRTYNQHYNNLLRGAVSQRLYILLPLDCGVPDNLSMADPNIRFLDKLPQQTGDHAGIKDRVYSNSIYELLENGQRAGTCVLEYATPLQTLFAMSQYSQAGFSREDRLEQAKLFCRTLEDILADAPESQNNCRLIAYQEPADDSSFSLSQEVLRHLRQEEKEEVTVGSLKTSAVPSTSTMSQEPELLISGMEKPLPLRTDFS

On to `CCOC(=O)COC(CCn1c(NC(=O)c2cc(C)nn2CC)nc2cc(C(N)=O)ccc21)CCn1c(NC(=O)c2cc(C)nn2CC)nc2cc(C(N)=O)ccc21` [Example 1, Ethyl {3-[5-carbamoyl-2-(1-ethyl-3-methyl-5-pyrazolylcarbonylamino)-1H-1,3-benzimidazol-1-yl]-1-{2-[5-carbamoyl-2-(1-ethyl-3-methyl-5-pyrazolylcarbonylamino)-1H-1,3-benzimidazol-1-yl]ethyl}propoxy}acetate], for which, on STING, the pIC50 (as a rule, −log10 of the IC50, conventionally taken in molar units) was 5.49. With `CCn1nc(C)cc1C(=O)N=c1n(C)c2cc(C(N)=O)ccc2n1CCC(CCn1c(=NC(=O)c2cc(C)nn2CC)n(C)c2cc(C(N)=O)ccc21)OCC(=O)N1CCN(C(C)=O)CC1` (stereo not drawn) [Example 12, 1-{3-[2-(4-Acetyl-1-piperazinyl)-2-oxoethoxy]-5-{5-carbamoyl-2-[(1-ethyl-3-methyl-5-pyrazolyl)carbonylimino]-3-methyl-2,3-dihydro-1H-1,3-benzimidazol-1-yl}pentyl}-2-[(1-ethyl-3-methyl-5-pyrazolyl)carbonylimino]-3-methyl-2,3-dihydro-1H-1,3-benzimidazole-5-carboxamide], the figures for the pIC50 (on STING; in assay [1]) were 5.01 and 8.77, respectively. As to `CCn1nc(C)cc1C(=O)N=c1n(C)c2cc(C(N)=O)ccc2n1CCC(CCn1c(=NC(=O)c2cc(C)nn2CC)n(C)c2cc(C(N)=O)ccc21)OCC(=O)N(CCOC)CCOC` (stereo not drawn) [Example 13, 1-(3-{[Bis(2-methoxyethyl)carbamoyl]methoxy}-5-{5-carbamoyl-2-[(1-ethyl-3-methyl-5-pyrazolyl)carbonylimino]-3-methyl-2,3-dihydro-1H-1,3-benzimidazol-1-yl}pentyl)-2-[(1-ethyl-3-methyl-5-pyrazolyl)carbonylimino]-3-methyl-2,3-dihydro-1H-1,3-benzimidazole-5-carboxamide], the figures for the pIC50 (on STING; in assay [1]) were 5.11 and 8.70, respectively. With `CCn1nc(C)cc1C(=O)N=c1n(C)c2cc(C(N)=O)ccc2n1CCC(CCn1c(=NC(=O)c2cc(C)nn2CC)n(C)c2cc(C(N)=O)ccc21)OCC(=O)N(C(C)C)C(C)C` (stereo not drawn) [Example 21, 1-(3-{[Bis(isopropyl)carbamoyl]methoxy}-5-{5-carbamoyl-2-[(1-ethyl-3-methyl-5-pyrazolyl)carbonylimino]-3-methyl-2,3-dihydro-1H-1,3-benzimidazol-1-yl}pentyl)-2-[(1-ethyl-3-methyl-5-pyrazolyl)carbonylimino]-3-methyl-2,3-dihydro-1H-1,3-benzimidazole-5-carboxamide], the pIC50 in assay [1] is 8.32.

Take `CCn1nc(C)cc1C(=O)N=c1n(C)c2cc(C(N)=O)ccc2n1CCC(CCn1c(=NC(=O)c2cc(C)nn2CC)n(C)c2cc(C(N)=O)ccc21)OCC(=O)Nc1cc(C)[nH]n1` (stereo not drawn) [Example 22, 1-{3-[(N-5-Methyl-3-pyrazolylcarbamoyl)methoxy]-5-{5-carbamoyl-2-[(1-ethyl-3-methyl-5-pyrazolyl)carbonylimino]-3-methyl-2,3-dihydro-1H-1,3-benzimidazol-1-yl}pentyl}-2-[(1-ethyl-3-methyl-5-pyrazolyl)carbonylimino]-3-methyl-2,3-dihydro-1H-1,3-benzimidazole-5-carboxamide]: the pIC50 on STING was 5.22; in assay [1] it was 7.89. Consider `CCn1nc(C)cc1C(=O)N=c1n(C)c2cc(C(N)=O)ccc2n1CCC(CCn1c(=NC(=O)c2cc(C)nn2CC)n(C)c2cc(C(N)=O)ccc21)OCC(=O)n1nc(N)cc1C` (stereo not drawn) [Example 23, 1-{3-[2-(3-Amino-5-methyl-1-pyrazolyl)-2-oxoethoxy]-5-{5-carbamoyl-2-[(1-ethyl-3-methyl-5-pyrazolyl)carbonylimino]-3-methyl-2,3-dihydro-1H-1,3-benzimidazol-1-yl}pentyl}-2-[(1-ethyl-3-methyl-5-pyrazolyl)carbonylimino]-3-methyl-2,3-dihydro-1H-1,3-benzimidazole-5-carboxamide], for which the pIC50 in assay [1] was 8.20.

In the case of `CCn1nc(C)cc1C(=O)N=c1n(C)c2cc(C(N)=O)ccc2n1CCC(CCn1c(=NC(=O)c2cc(C)nn2CC)n(C)c2cc(C(N)=O)ccc21)OCC(=O)n1nc(C)cc1N` (stereo not drawn) [Example 24, 1-{3-[2-(5-Amino-3-methyl-1-pyrazolyl)-2-oxoethoxy]-5-{5-carbamoyl-2-[(1-ethyl-3-methyl-5-pyrazolyl)carbonylimino]-3-methyl-2,3-dihydro-1H-1,3-benzimidazol-1-yl}pentyl}-2-[(1-ethyl-3-methyl-5-pyrazolyl)carbonylimino]-3-methyl-2,3-dihydro-1H-1,3-benzimidazole-5-carboxamide], the pIC50 in assay [1] is 8.32. On the same count and under the same terms, under `CCn1nc(C)cc1C(=O)N=c1n(C)c2cc(C(N)=O)ccc2n1CCC(CCn1c(=NC(=O)c2cc(C)nn2CC)n(C)c2cc(C(N)=O)ccc21)OCC(=O)N1CCC[C@H]1c1ccccc1` (stereo partly drawn) [Example 25, 1-(3-{2-[(S)-2-Phenyl-1-pyrrolidinyl]-2-oxoethoxy}-5-{5-carbamoyl-2-[(1-ethyl-3-methyl-5-pyrazolyl)carbonylimino]-3-methyl-2,3-dihydro-1H-1,3-benzimidazol-1-yl}pentyl)-2-[(1-ethyl-3-methyl-5-pyrazolyl)carbonylimino]-3-methyl-2,3-dihydro-1H-1,3-benzimidazole-5-carboxamide] stands 8.34.

Regarding `CCn1nc(C)cc1C(=O)N=c1n(C)c2cc(C(N)=O)ccc2n1CCC(CCn1c(=NC(=O)c2cc(C)nn2CC)n(C)c2cc(C(N)=O)ccc21)OCC(=O)N1CCC[C@H]1C(=O)N1CCc2cc(OC)ccc2C1` (stereo partly drawn) [Example 26, 1-[3-(2-{(S)-2-[(6-Methoxy-1,2,3,4-tetrahydro-2-isoquinolyl)carbonyl]-1-pyrrolidinyl}-2-oxoethoxy)-5-{5-carbamoyl-2-[(1-ethyl-3-methyl-5-pyrazolyl)carbonylimino]-3-methyl-2,3-dihydro-1H-1,3-benzimidazol-1-yl}pentyl]-2-[(1-ethyl-3-methyl-5-pyrazolyl)carbonylimino]-3-methyl-2,3-dihydro-1H-1,3-benzimidazole-5-carboxamide], the pIC50 at STING is 5.85; in assay [1] it was 8.46. With `CCn1nc(C)cc1C(=O)N=c1n(C)c2cc(C(N)=O)ccc2n1CCC(CCn1c(=NC(=O)c2cc(C)nn2CC)n(C)c2cc(C(N)=O)ccc21)OCC(=O)N1CCC[C@@H]1c1cc(F)ccc1F` (stereo partly drawn) [Example 27, 1-(3-{2-[(R)-2-(2,5-Difluorophenyl)-1-pyrrolidinyl]-2-oxoethoxy}-5-{5-carbamoyl-2-[(1-ethyl-3-methyl-5-pyrazolyl)carbonylimino]-3-methyl-2,3-dihydro-1H-1,3-benzimidazol-1-yl}pentyl)-2-[(1-ethyl-3-methyl-5-pyrazolyl)carbonylimino]-3-methyl-2,3-dihydro-1H-1,3-benzimidazole-5-carboxamide], the pIC50 in assay [1] was 8.43.

As to `CCn1nc(C)cc1C(=O)N=c1n(C)c2cc(C(N)=O)ccc2n1CCC(CCn1c(=NC(=O)c2cc(C)nn2CC)n(C)c2cc(C(N)=O)ccc21)OCC(=O)N1CCC[C@H]1c1nnn[nH]1` (stereo partly drawn) [Example 28, 1-(3-{2-[(S)-2-(1H-Tetrazol-5-yl)-1-pyrrolidinyl]-2-oxoethoxy}-5-{5-carbamoyl-2-[(1-ethyl-3-methyl-5-pyrazolyl)carbonylimino]-3-methyl-2,3-dihydro-1H-1,3-benzimidazol-1-yl}pentyl)-2-[(1-ethyl-3-methyl-5-pyrazolyl)carbonylimino]-3-methyl-2,3-dihydro-1H-1,3-benzimidazole-5-carboxamide], the pIC50 is 5.41 at STING and 8.08 in assay [1]. For `CCNC(=O)COC(CCn1c(=NC(=O)c2cc(C)nn2CC)n(C)c2cc(C(N)=O)ccc21)CCn1c(=NC(=O)c2cc(C)nn2CC)n(C)c2cc(C(N)=O)ccc21` (stereo not drawn) [Example 29, 1-{3-[(N-Ethylcarbamoyl)methoxy]-5-{5-carbamoyl-2-[(1-ethyl-3-methyl-5-pyrazolyl)carbonylimino]-3-methyl-2,3-dihydro-1H-1,3-benzimidazol-1-yl}pentyl}-2-[(1-ethyl-3-methyl-5-pyrazolyl)carbonylimino]-3-methyl-2,3-dihydro-1H-1,3-benzimidazole-5-carboxamide], in that order: 5.28 and 8.15.

The record behind these values is patent EP4534147A1, “STING ANTAGONIST COMPOUNDS” (Sulis Therapeutics ApS, priority 2023, dated 2025).
